Data taken from patent US7462613B2, “Pyridazinone derivatives as pharmaceuticals and pharmaceutical compositions containing them” (SANOFI-AVENTIS Deutschland GmbH, priority 2002, dated 2008).

Molecular target: CDK2/Cyclin E kinase (Homo sapiens, UniProt P24941)
Experiment: CDK2/Cyclin E Flashplate Assay: 96-Well Format
Assay type: biochemical
Conditions: streptavidin-coated flashplate; biotinylated-Rb peptide substrate 10 μM; 33P-ATP/ATP 1 μM; CDK2/Cyclin E 20 nM; 30 minutes at 30° C.; 1% DMSO
Protocol: Functional Measurements for Determination of IC50-Values
CDK2/Cyclin E Flashplate Assay: 96-Well Format
A 96-well streptavidin-coated flashplate was used to assay potency of compounds according formula (I) against CDK2/Cyclin E kinase. To carry out the assay, biotinylated-Rb peptide substrate (Biotin-[…]-OH) was solubilized at 1 mM in kinase buffer (Hepes 50 mM, NaCl 1 mM, MgCl2 5 mM pH 7.5) as a stock solution conserved at −20° C. in aliquots of 110 μl. The day of the experiment, an aliquot of this solution was thawed and diluted to 14.3 μM in kinase buffer, containing 1 mM dithiothreitol (DTT) added in the buffer at the same time.
70 μl of this solution was added in each well of the flashplate in order to achieve a final concentration of 10 μM (100 μl reactionnal volume). Serial dilutions of inhibitors were prepared in DMSO from 10 mM stock solutions in order to achieve 1000 μM, 333.3 μM, 111.1 μM, 37.03 μM, 12.35 μM, 4.11 μM and 1.37 μM and all were rediluted in kinase buffer+DTT in order to achieve 100 μM, 33.3 μM, 11.1 μM, 3.7 μM, 1.24 μM, 0.41 μM and 0.14 μM in DMSO 10% buffer (vol/vol). 10 μl of each, of these solutions (or 10 μl of buffer+DTT for controls) were transferred to the testplate wells in order to achieve 10 μM, 3.33 μM, 1.11 μM, 0.37 μM, 0.12 μM, 0.04. μM and 0.01 μM as final concentrations, 1% DMSO (vol/vol). In each well, 10 μl of a solution of a mix of ^33PyATP/ATP were added in order to achieve 1 μM final concentration and a total of 1 μCi. The kinase reaction was initiated by addition of 10 μl of a solution at 200 nM of CDK2/Cyclin E in kinase buffer+DTT (or buffer+DTT for blanks) in order to achieve 20 nM final concentration. After addition of each reagent, the test-plate was shakened. The plates were incubated 30 minutes at 30° C. with a shaking at 650 rpm. At the end of the incubation, the plates were washed 3 times with 300 μl of PBS (without calcium and magnesium) per well. The incorporation of ^33P to the peptide was measured by scintillation counting.

Row | IC50 [nM] | SMILES
1 | 664 | CS(=O)(=O)c1ccc(CNC(=O)c2cc(-c3ccncc3)n[nH]c2=O)cc1 [Example 98, 3-Oxo-6-pyridin-4-yl-2,3-dihydro-pyridazine-4-carboxylic acid 4-methanesulfonyl-benzylamide; compoundwith trifluoro-acetic acid]
2 | 764 | CCOC(=O)CCNC(=O)c1cc(-c2ccncc2)n[nH]c1=O [Example 13, Ethyl 3-[(3-oxo-6-pyridin-4-yl-2,3-dihydropyridazine-4-carbonyl)amino]propionate]
3 | 787 | O=C(NCc1ccc(Cl)cc1F)c1cc(-c2ccncc2)n[nH]c1=O [Example 116, 3-Oxo-6-pyridin-4-yl-2,3-dihydro-pyridazine-4-carboxylic acid 4-chloro-2-fluoro-benzylamide;compound with trifluoro-acetic acid]
4 | 464 | O=C(NCc1ccc(Cl)cc1)c1cc(-c2cc(F)c(O)c(F)c2)n[nH]c1=O [Example 182, 6-(3,5-Difluoro-4-hydroxy-phenyl)-3-oxo-2,3-dihydro-pyridazine-4-carboxylic acid 4-chloro-benzylamide]
5 | 24 | COC(=O)c1ccc(CNC(=O)c2cc(-c3ccncc3)n[nH]c2=O)cc1 [Example 217, 4-{[(3-Oxo-6-pyridin-4-yl-2,3-dihydro-pyridazine-4-carbonyl)-amino]-methyl}-benzoic acid methylester; compound withtrifluoro-acetic acid]
6 | 802 | O=C(NCc1ccc(Br)cc1)c1cc(-c2ccncc2)n[nH]c1=O [Example 75, 3-Oxo-6-pyridin-4-yl-2,3-dihydro-pyridazine-4-carboxylic acid 4-bromo-benzylamide; compoundwith trifluoro-acetic acid]
7 | 356 | O=C(NCc1ccc(Cl)s1)c1cc(-c2ccncc2)n[nH]c1=O [Example 142, 3-Oxo-6-pyridin-4-yl-2,3-dihydro-pyridazine-4-carboxylic acid (5-chloro-thiophen-2-ylmethyl)-amide; compound withtrifluoro-acetic acid]
8 | 175 | COc1cc(-c2cc(C(=O)NCCCc3cccnc3)c(=O)[nH]n2)ccc1O [Example 49, 6-(4-Hydroxy-3-methoxy-phenyl)-3-oxo-2,3-dihydro-pyridazine-4-carboxylic acid (3-pyridin-3-yl-propyl)-amide]
9 | 174 | O=C(NCc1ccc(Cl)c(Cl)c1)c1cc(-c2ccncc2)n[nH]c1=O [Example 16, N-(3,4-dichlorobenzyl)-3-oxo-6-pyridin-4-yl-2,3-dihydropyridazine-4-carboxamide]
10 | 27 | O=C(NCc1ccc(Cl)cc1)c1cc(-c2ccnc(NCCN3CCOCC3)n2)n[nH]c1=O [Example 175, 6-[2-(2-Morpholin-4-yl-ethylamino)-pyrimidin-4-yl]-3-oxo-2,3-dihydro-pyridazine-4-carboxylicacid 4-chloro-benzylamide; compoundwith trifluoro-acetic acid]
11 | 219 | O=C(NCc1ccc2c(c1)OCO2)c1cc(-c2ccncc2)n[nH]c1=O [Example 84, 3-Oxo-6-pyridin-4-yl-2,3-dihydro-pyridazine-4-carboxylic acid(benzo[1,3]dioxol-5-ylmethyl)-amide;compound with trifluoro-acetic acid]
12 | 905 | O=C(NCc1ccc(Cl)cc1Cl)c1cc(-c2ccncc2)n[nH]c1=O [Example 2, N-(2,4-dichlorobenzyl)-3-oxo-6-pyridin-4-yl-2,3-dihydropyridazine-4-carboxamide]
13 | 360 | O=C(NCc1ccc(C(F)(F)F)cc1)c1cc(-c2ccncc2)n[nH]c1=O [Example 112, 3-Oxo-6-pyridin-4-yl-2,3-dihydro-pyridazine-4-carboxylic acid 4-trifluoromethyl-benzylamide; compoundwith trifluoro-acetic acid]
14 | 164 | O=C(NCCc1ccccc1Cl)c1cc(-c2ccncc2)n[nH]c1=O [Example 103, 3-Oxo-6-pyridin-4-yl-2,3-dihydro-pyridazine-4-carboxylic acid [2-(2-chloro-phenyl)-ethyl]-amide; compound withtrifluoro-acetic acid]
15 | 157 | CNc1cc(-c2cc(C(=O)NCc3ccc(Cl)cc3)c(=O)[nH]n2)ccn1 [Example 206, 6-(2-Methylamino-pyridin-4-yl)-3-oxo-2,3-dihydro-pyridazine-4-carboxylicacid 4-chloro-benzylamide]
16 | 552 | COc1ccc(CNC(=O)c2cc(-c3ccncc3)n[nH]c2=O)cc1 [Example 83, 3-Oxo-6-pyridin-4-yl-2,3-dihydro-pyridazine-4-carboxylic acid 4-methoxy-benzylamide;compound with trifluoro-acetic acid]
17 | 349 | O=C(NCc1ccc(F)c(Br)c1)c1cc(-c2ccncc2)n[nH]c1=O [Example 93, 3-Oxo-6-pyridin-4-yl-2,3-dihydro-pyridazine-4-carboxylic acid 3-bromo-4-fluoro-benzylamide;compound with trifluoro-acetic acid]
18 | 125 | C[C@@H](Nc1nccc(-c2cc(C(=O)NCCCc3cccnc3)c(=O)[nH]n2)n1)c1ccccc1 [Example 167, R-3-Oxo-6-[2-(1-phenyl-ethylamino)-pyrimidin-4-yl]-2,3-dihydro-pyridazine-4-carboxylic acid (3-pyridin-3-yl-propyl)-amide]
19 | 12 | CCCCNc1nccc(-c2cc(C(=O)NCCCc3cccnc3)c(=O)[nH]n2)n1 [Example 220, 6-(2-Butylamino-pyrimidin-4-yl)-3-oxo-2,3-dihydro-pyridazine-4-carboxylic acid (3-pyridin-3-yl-propyl)-amide]
20 | 521 | O=C(NCCCc1ccccc1)c1cc(-c2ccncc2)n[nH]c1=O [Example 66, 3-Oxo-6-pyridin-4-yl-2,3-dihydro-pyridazine-4-carboxylic acid (3-phenyl-propyl)-amide; compoundwith trifluoro-acetic acid]
21 | 536 | O=C(NCc1ccc(O)cc1)c1cc(-c2ccncc2)n[nH]c1=O [Example 18, N-(4-hydroxybenzyl)-3-oxo-6-pyridin-4-yl-2,3-dihydropyridazine-4-arboxamide]
